Assay results published in ChEMBL document CHEMBL5537193, “Multitargeting HDAC Inhibitors Containing a RAS/RAF Protein Interfering Unit” (J Med Chem, 2024).
Active and inactive are the calls of the source. The rule behind the calls is not given here.

Columns and labels:
Histone deacetylase 4 = Histone deacetylase 4 (Homo sapiens, UniProt P56524); assay: Inhibition of HDAC4 (unknown origin)
[1] = biological target: T1, Serine/threonine-protein kinase PLK1 (Homo sapiens, UniProt P53350); assay: Inhibition of PLK1 (unknown origin)
T1 sequence (P53350 whole entry): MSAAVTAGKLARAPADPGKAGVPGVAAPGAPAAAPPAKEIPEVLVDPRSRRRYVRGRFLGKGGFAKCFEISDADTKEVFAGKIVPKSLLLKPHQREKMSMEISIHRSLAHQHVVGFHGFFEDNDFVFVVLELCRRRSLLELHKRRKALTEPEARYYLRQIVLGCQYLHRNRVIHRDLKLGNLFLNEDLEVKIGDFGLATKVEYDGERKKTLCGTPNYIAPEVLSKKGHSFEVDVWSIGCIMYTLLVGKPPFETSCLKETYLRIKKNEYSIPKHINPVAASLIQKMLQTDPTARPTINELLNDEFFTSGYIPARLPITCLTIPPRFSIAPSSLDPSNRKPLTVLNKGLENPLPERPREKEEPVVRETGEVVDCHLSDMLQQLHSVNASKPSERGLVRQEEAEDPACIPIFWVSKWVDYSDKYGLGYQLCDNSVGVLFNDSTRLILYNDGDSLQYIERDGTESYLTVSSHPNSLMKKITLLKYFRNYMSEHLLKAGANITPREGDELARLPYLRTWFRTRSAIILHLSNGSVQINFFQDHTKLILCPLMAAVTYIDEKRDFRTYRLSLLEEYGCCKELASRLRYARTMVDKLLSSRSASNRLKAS

[2] = biological target: T1, Serine/threonine-protein kinase PLK1; assay: Inhibition of PLK1 (unknown origin) at 10 uM relative to control
PANC-1 [3] = assay: Cell cycle arrest in human PANC-1 cells assessed as accumulation of cells at G2-M phase at 2 uM incubated for 24 hrs by PI/RNase staining based flow cytometric analysis; format: functional
HT-29 [4] = assay: Induction of apoptosis in human HT-29 cells assessed as apoptotic ratio at 2 uM incubated for 24 hrs by flow cytometric analysis; format: functional
PANC-1 [5] = assay: Induction of apoptosis in human PANC-1 cells incubated for 24 hrs by flow cytometric analysis; format: functional, cell-based; details: dose 1-4 µM
HT-29 [6] = assay: Induction of apoptosis in human HT-29 cells incubated for 24 hrs by flow cytometric analysis; format: functional, cell-based; details: dose 1-4 µM
PANC-1 [7] = assay: Induction of apoptosis in human PANC-1 cells assessed as increase in Bax expression at 2 uM incubated for 24 hrs by Western blot analysis; format: functional, cell-based
[8] = Metabolic stability in human liver microsomes assessed as half-life at 1 uM measured upto 40 mins by LC-MS/MS analysis; format: ADME, Microsome
[9] = Metabolic stability in mouse liver microsomes assessed as half-life at 1 uM measured upto 40 mins by LC-MS/MS analysis; format: ADME, Microsome
[10] = Metabolic stability in human liver microsomes assessed as intrinsic clearance at 1 uM measured upto 40 mins by LC-MS/MS analysis; format: ADME, Microsome; details: read-out: CLH
[11] = Metabolic stability in rat liver microsomes assessed as intrinsic clearance at 1 uM measured upto 40 mins by LC-MS/MS analysis; format: ADME, Microsome; details: read-out: CLH
[12] = Metabolic stability in mouse liver microsomes assessed as intrinsic clearance at 1 uM measured upto 40 mins by LC-MS/MS analysis; format: ADME, Microsome; details: read-out: CLH
[13] = Half-life in Sprague-Dawley rat at 15 mg/kg, ip measured after 24 hrs by LC-MS/MS analysis; format: ADME, organism-based; details: in vivo
[14] = Tmax in Sprague-Dawley rat at 15 mg/kg, ip measured after 24 hrs by LC-MS/MS analysis; format: ADME, organism-based; details: in vivo
[15] = AUC (0 to t) in Sprague-Dawley rat at 15 mg/kg, ip measured after 24 hrs by LC-MS/MS analysis; format: ADME, organism-based; details: in vivo
[16] = MRT (0 to infinity) in Sprague-Dawley rat at 15 mg/kg, ip measured after 24 hrs by LC-MS/MS analysis; format: ADME, organism-based; details: in vivo
[17] = Toxicity in BALB/c nude mouse xenografted with human HT-29 cells assessed as change in body weight at 7.5 to 15 mg/kg, ip administered once every 2 days for 12 times for 24 days; format: organism-based; details: in vivo, 576 h, dose 7.5-15 mg/kg, time 24 day
[18] = Toxicity in BALB/c nude mouse xenografted with human HT-29 cells assessed as change in main organs at 7.5 to 15 mg/kg, ip administered once every 2 days for 12 times for 24 days by H&E staining based analysis; format: organism-based; details: in vivo, 576 h, dose 7.5-15 mg/kg, time 24 day
PANC-1 [19] = assay: Effect on RAS protein expression in human PANC-1 cells at 2 uM incubated for 24 hrs by Western blot analysis; format: functional, cell-based
PANC-1 [20] = assay: Effect on MEK protein expression in human PANC-1 cells at 2 uM incubated for 24 hrs by Western blot analysis; format: functional, cell-based
PANC-1 [21] = assay: Effect on ERK1/2 protein expression in human PANC-1 cells at 2 uM incubated for 24 hrs by Western blot analysis; format: functional, cell-based
HT-29 [22] = assay: Effect on ERK1/2 protein expression in human HT-29 cells at 2 uM incubated for 24 hrs by Western blot analysis; format: functional, cell-based
PANC-1 [23] = assay: Inhibition of MAPK signaling pathway in human PANC-1 cells assessed as inhibition of C-RAF phosphorylation at Ser338 residue at 2 uM incubated for 24 hrs by Western blot analysis; format: cell-based
PANC-1 [24] = assay: Inhibition of MAPK signaling pathway in human PANC-1 cells assessed as inhibition of ERK1/2 phosphorylation at 2 uM incubated for 24 hrs by Western blot analysis; format: cell-based
HT-29 [25] = assay: Inhibition of MAPK signaling pathway in human HT-29 cells assessed as inhibition of ERK1/2 phosphorylation at 2 uM incubated for 24 hrs by Western blot analysis; format: cell-based
HT-29 [26] = assay: Effect on Histone H3 expression in human HT-29 cells at 2 uM incubated for 24 hrs by Western blot analysis; format: functional, cell-based
HT-29 [27] = assay: Effect on alpha-tubulin expression in human HT-29 cells at 2 uM incubated for 24 hrs by Western blot analysis; format: functional, cell-based
Mus musculus = assay: In vivo inhibition of MAPK signaling pathway in BALB/c mouse xenografted with human HT-29 cells assessed as inhibition of ERK1/2 phosphorylation administered intraperitoneally once every 2 days for 12 times and measured after 24 days by Western blot analysis; format: functional; details: dose 7.5-15 mg/kg, route ip, time 24.0 day
HT-29 [28] = assay: Antitumor activity against human HT-29 cells xenografted in BALB/c nude mouse assessed as tumor growth inhibition at 7.5 mg/kg, ip administered once a day for 24 days relative to control; format: functional; details: HT-29, 576 h, time 24 day, read-out: TGI
HT-29 [29] = assay: Antitumor activity against human HT-29 cells xenografted in BALB/c nude mouse assessed as tumor growth inhibition at 15 mg/kg, ip administered once a day for 24 days relative to control; format: functional; details: HT-29, 576 h, time 24 day, read-out: TGI
HT-29 [30] = assay: Antitumor activity against human HT-29 cells xenografted in BALB/c nude mouse assessed as tumor growth inhibition administered intraperitoneally once a day for 24 days; format: functional, cell-based; details: route ip, time 24.0 day
[31] = Toxicity in BALB/c nude mouse xenografted with human HT-29 cells assessed as change in lung histopathology at 10 to 15 mg/kg, ip administered once daily for 24 days by H&E staining based analysis; format: organism-based; details: in vivo, 576 h, dose 10-15 mg/kg, time 24 day
[32] = Toxicity in BALB/c nude mouse xenografted with human HT-29 cells assessed as change in kidney histopathology at 10 to 15 mg/kg, ip administered once daily for 24 days by H&E staining based analysis; format: organism-based; details: in vivo, 576 h, dose 10-15 mg/kg, time 24 day
A549 = assay: cells; details: Homo sapiens, A549, 72 h
Description: Cytotoxicity against human A549 cells assessed as inhibition of cell growth incubated for 72 hrs by MTT assay

A-431 = assay: cells; details: Homo sapiens, A-431, 72 h
Description: Cytotoxicity against human A-431 cells assessed as inhibition of cell growth incubated for 72 hrs by MTT assay

SGC-7901 = assay: cells; details: Homo sapiens, SGC-7901, 72 h
Description: Cytotoxicity against human SGC-7901 cells assessed as inhibition of cell growth incubated for 72 hrs by MTT assay

MCF7 = assay: cells; details: Homo sapiens, MCF7, 72 h
Description: Cytotoxicity against human MCF7 cells assessed as inhibition of cell growth incubated for 72 hrs by MTT assay

L02 = assay: cells; details: Homo sapiens, L02, 72 h
Description: Cytotoxicity against human L02 cells assessed as inhibition of cell growth incubated for 72 hrs by MTT assay

PANC-1 [33] = assay: cells; details: Homo sapiens, PANC-1, 72 h
Description: Cytotoxicity against human PANC-1 cells assessed as inhibition of cell growth incubated for 72 hrs by MTT assay

K562 = assay: cells; details: Homo sapiens, K562, 72 h
Description: Cytotoxicity against human K562 cells assessed as inhibition of cell growth incubated for 72 hrs by MTT assay

MV4-11 = assay: cells; details: Homo sapiens, MV4-11, 72 h
Description: Cytotoxicity against human MV4-11 cells assessed as inhibition of cell growth incubated for 72 hrs by MTT assay

Chain of Histone deacetylase 4 (P56524 whole entry): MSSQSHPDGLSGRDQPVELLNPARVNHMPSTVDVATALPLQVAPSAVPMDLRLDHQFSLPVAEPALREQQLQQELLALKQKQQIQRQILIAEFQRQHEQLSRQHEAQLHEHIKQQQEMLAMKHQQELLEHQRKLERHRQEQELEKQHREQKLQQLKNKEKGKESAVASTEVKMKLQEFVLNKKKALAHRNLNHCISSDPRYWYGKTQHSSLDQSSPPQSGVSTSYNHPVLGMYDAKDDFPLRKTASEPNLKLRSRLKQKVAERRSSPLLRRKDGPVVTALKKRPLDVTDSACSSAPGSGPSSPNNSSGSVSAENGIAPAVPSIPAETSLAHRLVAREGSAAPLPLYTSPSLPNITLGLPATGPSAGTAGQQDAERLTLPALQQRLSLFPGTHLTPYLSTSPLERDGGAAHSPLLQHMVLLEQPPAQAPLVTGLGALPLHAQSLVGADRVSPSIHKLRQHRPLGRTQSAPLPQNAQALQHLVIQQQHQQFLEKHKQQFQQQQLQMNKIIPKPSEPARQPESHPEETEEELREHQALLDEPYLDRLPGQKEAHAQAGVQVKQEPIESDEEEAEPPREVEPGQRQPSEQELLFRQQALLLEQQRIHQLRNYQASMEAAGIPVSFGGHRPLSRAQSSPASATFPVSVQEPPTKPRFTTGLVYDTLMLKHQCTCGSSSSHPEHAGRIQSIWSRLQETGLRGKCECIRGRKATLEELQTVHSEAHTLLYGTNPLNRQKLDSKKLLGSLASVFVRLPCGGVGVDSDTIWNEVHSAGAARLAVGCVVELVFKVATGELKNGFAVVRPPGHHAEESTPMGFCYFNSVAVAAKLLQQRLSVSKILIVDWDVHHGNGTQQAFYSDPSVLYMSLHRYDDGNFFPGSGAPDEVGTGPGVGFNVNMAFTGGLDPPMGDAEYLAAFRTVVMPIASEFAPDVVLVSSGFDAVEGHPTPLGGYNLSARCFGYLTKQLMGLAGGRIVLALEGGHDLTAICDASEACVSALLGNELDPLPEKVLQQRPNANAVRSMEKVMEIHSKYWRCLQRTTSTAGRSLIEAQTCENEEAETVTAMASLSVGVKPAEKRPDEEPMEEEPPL

IC50 (Histone deacetylase 4): 0.0751 µM
IC50 [1]: 0.0178 µM
inhibition [1]: Dose-Dependent Effect
inhibition [2]: 100%
half-life at 1 µM [8]: 124 min
half-life at 1 µM [9]: 28.6 min
CLint scaled at 1 µM [10]: 0.839 L/h/kg
CLint scaled at 1 µM [11]: 27 L/h/kg
CLint scaled at 1 µM [12]: 11.5 L/h/kg
half-life [13]: 46.3 min
Tmax [14]: 30 min
AUC(0-t) at 24 h [15]: 5.19 µg·h/mL
MRT inf [16]: 80.4 min
IC50 (A549): 0.09 µM
IC50 (A-431): 0.55 µM
IC50 (SGC-7901): 0.17 µM
IC50 (MCF7): 0.24 µM
IC50 (PANC-1 [33]): 0.05 µM
IC50 (K562): 0.02 µM
IC50 (MV4-11): 0.08 µM
SMILES: COc1cc(OC)c(/C=C/S(=O)(=O)Cc2ccc(OC)c(NCC(=O)NO)c2)c(OC)c1
Activity (PANC-1 [3]): Active
Activity (HT-29 [4]): 51.5%
Activity (PANC-1 [5]): Dose-Dependent Effect
Activity (HT-29 [6]): Dose-Dependent Effect
Activity (PANC-1 [7]): Active
Activity [17]: Non-Toxic
Activity [18]: Non-Toxic
Activity (PANC-1 [19]): inactive
Activity (PANC-1 [20]): inactive
Activity (PANC-1 [21]): inactive
Activity (HT-29 [22]): inactive
inhibition (PANC-1 [23]): Active
inhibition (PANC-1 [24]): Active
inhibition (HT-29 [25]): Active
Activity (HT-29 [26]): inactive
Activity (HT-29 [27]): inactive
inhibition (Mus musculus): Dose-Dependent Effect
inhibition in vivo at 7.5 mg/kg (HT-29 [28]): 70.1%
inhibition in vivo at 15 mg/kg (HT-29 [29]): 86.7%
TGI (HT-29 [30]): Dose-Dependent Effect
Activity [31]: Non-Toxic
Activity [32]: Non-Toxic
IC50 (L02): > 40 µM
